Measurements: PMC3350394, “Kinetic analysis and test-retest variability of the radioligand [^11C](R)-PK11195 binding to TSPO in the human brain - a PET study in control subjects” (EJNMMI Research, 2012)
“And” between values parts separate entries of the source, which are not always exact repeats. Equal entries are not always repeated.

Assays:
[1] = tested on: p-glycoprotein-ABCB1; design: method as in PMID 19948230; conditions: cited from earlier work
[2] = target: T1, TSPO (Homo sapiens, UniProt P30536); experiment: PET, modified 2TCM with shared K1/k2; format: in vivo; design: from tissue; host or cells: living human brain (in vivo PET in six control subjects); conditions: first PET measurement
Protocol: In addition, data were analysed using a modified 2TCM model which fitted parameters K1/k2, k2, k3 and k4 of the model to several TACs simultaneously in a way that the parameter K1/k2 was shared between regions. First, all ROIs primarily consisting of the grey matter, including the ROI of the typical GM uptake, were fitted in this way then followed by a fit involving white matter regions and, again, the ROI of the typical GM uptake. The ROI of the typical GM uptake was used in the second fitting session to allow for a coupling of K1/k2 between that region and white matter ROIs. However, the parameters obtained for the typical GM ROI in the first session were retained for final analysis.

[3] = tested on: ABCG2; design: method as in PMID 19948230; conditions: cited from earlier work
[4] = Plasma metabolite analysis using HPLC; format: in vivo, human
Description: The method for the determination of the fraction of radioactivity corresponding to unchanged [^11C](R)-PK11195 and labelled metabolites during the time of a PET measurement was a modification of a high-performance liquid chromatography (HPLC) method developed for other PET radioligands. […] The HPLC system used consisted of a Merck-Hitachi D-7000 interface module, a Merck-Hitachi L-7100 pump and a Rheodyne injector (7125 with a 5.0-mL loop) (VWR International, Stockholm, Sweden) equipped with a Waters/-Bondapack-C18 column (300 mm × 7.8 mm, 10-μm particle size; Waters, Milford, MA, USA) and a Merck-Hitachi L-7400 absorbance detector (254 nm) in series with a Packard Radiomatic 150TR radiometric detector (Packard BioScience, Meriden, CT, USA) equipped with a PET flow cell (600-μL cell). The HPLC methods used were acetonitrile (A) and phosphoric acid (0.01 M) (B) as mobile phase at 6.0 mL/min. […] The radioactive peak having a retention time corresponding to [^11C](R)-PK11195 was integrated, and its area was expressed as a percentage of the sum of the areas of all detected radioactive peaks.

[5] = tested on: TSPO; design: method as in PMID 22008728; conditions: TSPO SNP Ala147Thr; cited from earlier work
[6] = target: T1, TSPO; experiment: PET, linear graphical analysis (Logan) distribution volume; format: in vivo; design: from tissue; host or cells: living human brain (in vivo PET in six control subjects); conditions: for Error % mean(SD) / Error range (%): VT Logan test-retest; for VT Logan: mean(SD)
Protocol: The [^11C](R)-PK11195 distribution volume was also quantified using a linear graphical analysis for reversible ligand binding. The regional distribution volumes were determined from the slope of the linear plots obtained from 8 to 60 min after intravenous (i.v.) injection using the radioactivity of unchanged [^11C](R)-PK11195 in arterial plasma as an input function.

[7] = design: method as in PMID 19050880, PMID 16039131; conditions: cited from earlier work
[8] = Radioligand brain exposure (PET); format: in vivo, human
Protocol: To calculate the percentage of [^11C](R)-PK11195 injected that was present in the brain at the time of maximal radioactivity, the radioactivity concentration in the ROI for the whole brain was multiplied by the estimated average brain volume (1,250 mL), divided by the radioactivity injected and multiplied by 100 to obtain the percentage of injected radioactivity.
Average radioactivity for the ROI was calculated by pooling the data from the series of brain sections. The radioactivity concentration for each sequential time frame was corrected for the physical decay of carbon-11 and used to obtain the regional time-radioactivity curves (TACs; in kiloBecquerels per cubic centimetre).

[9] = tested on: TSPO; design: method as in PMID 1782994; conditions: grey matter; baboons; indirect quantitative approach; cited from earlier work
[10] = tested on: ABCC1; design: method as in PMID 19948230; conditions: cited from earlier work
[11] = cortical grey matter, individual subjects 1-6
[12] = cortical grey matter, mean of 6 subjects
[13] = white matter, individual subjects 1-6
[14] = white matter, mean of 6 subjects
[15] = by the end of PET measurement time
[16] = at peak, approximately 1 min after i.v. injection, n = 6

T1 sequence (P30536 whole entry): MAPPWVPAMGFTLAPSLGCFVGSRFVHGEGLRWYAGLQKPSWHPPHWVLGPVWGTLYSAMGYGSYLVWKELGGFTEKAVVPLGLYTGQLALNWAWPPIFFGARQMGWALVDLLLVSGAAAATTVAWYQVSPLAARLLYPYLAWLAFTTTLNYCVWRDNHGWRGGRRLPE

Compound: CC[C@@H](C)N([11CH3])C(=O)c1cc2ccccc2c(-c2ccccc2Cl)n1 [[^11C](R)-PK11195]
- substrate for ABC transporter [1]: not a substrate
- k2 ([2]; cortical grey matter): 0.228 min⁻¹
- k3 ([2]; cortical grey matter): 0.053 min⁻¹
- K1 [2, 11]: 0.050 mL/cc/min and 0.092 mL/cc/min and 0.070 mL/cc/min and 0.089 mL/cc/min and 0.046 mL/cc/min and 0.080 mL/cc/min
- k2 [2, 11]: 0.180 min⁻¹ and 0.236 min⁻¹ and 0.228 min⁻¹ and 0.307 min⁻¹ and 0.185 min⁻¹ and 0.235 min⁻¹
- k3 [2, 11]: 0.021 min⁻¹ and 0.055 min⁻¹ and 0.046 min⁻¹ and 0.124 min⁻¹ and 0.035 min⁻¹ and 0.036 min⁻¹
- k4 [2, 11]: 0.014 min⁻¹ and 0.054 min⁻¹ and 0.025 min⁻¹ and 0.061 min⁻¹ and 0.026 min⁻¹ and 0.020 min⁻¹
- K1 [2, 12]: 0.071 mL/cc/min
- k4 [2, 12]: 0.033 min⁻¹
- k2 ([2]; white matter): 0.159 min⁻¹
- k3 ([2]; white matter): 0.036 min⁻¹
- K1 [2, 13]: 0.067 mL/cc/min and 0.056 mL/cc/min and 0.062 mL/cc/min and 0.032 mL/cc/min and 0.061 mL/cc/min and 0.036 mL/cc/min
- k2 [2, 13]: 0.169 min⁻¹ and 0.180 min⁻¹ and 0.159 min⁻¹ and 0.129 min⁻¹ and 0.182 min⁻¹ and 0.138 min⁻¹
- k3 [2, 13]: 0.040 min⁻¹ and 0.045 min⁻¹ and 0.046 min⁻¹ and 0.026 min⁻¹ and 0.033 min⁻¹ and 0.024 min⁻¹
- k4 [2, 13]: 0.033 min⁻¹ and 0.021 min⁻¹ and 0.027 min⁻¹ and 0.013 min⁻¹ and 0.012 min⁻¹
- K1 [2, 14]: 0.052 mL/cc/min
- k4 [2, 14]: 0.020 min⁻¹
- substrate for ABC transporter [3]: not a substrate
- polarity of radioactive metabolites in plasma ([4]; HPLC): more polar than the parent compound
- unchanged fraction in plasma [4, 15]: 70 ± 1.5%
- unchanged fraction in plasma, range [4, 15]: 60% to 77
- metabolism ([4]; human plasma): not extensive
- sensitivity to TSPO genotype [5]: not sensitive to TSPO genotype
- Error % mean(SD) ([6]; brainstem): -8(12) %
- Error range (%) ([6]; brainstem): -24 to 12%
- VT Logan ([6]; brainstem, retest): 0.67(0.19)
- VT Logan ([6]; brainstem, test): 0.74(0.21)
- Error % mean(SD) ([6]; caudate): -5(23) %
- Error range (%) ([6]; caudate): -37 to 25%
- VT Logan ([6]; caudate, retest): 0.59(0.19)
- VT Logan ([6]; caudate, test): 0.64(0.16)
- Error % mean(SD) ([6]; cerebellum): -4(18) %
- Error range (%) ([6]; cerebellum): -29 to 20%
- VT Logan ([6]; cerebellum, retest): 0.68(0.18)
- VT Logan ([6]; cerebellum, test): 0.72(0.18)
- Error % mean(SD) ([6]; grey matter): -4(16) %
- Error range (%) ([6]; grey matter): -28 to 17%
- VT Logan ([6]; grey matter, retest): 0.65(0.18)
- VT Logan ([6]; grey matter, test): 0.69(0.17)
- Error % mean(SD) ([6]; putamen): 3(25) %
- Error range (%) ([6]; putamen): -25 to 42%
- VT Logan ([6]; putamen, retest): 0.73(0.26)
- VT Logan ([6]; putamen, test): 0.70(0.15)
- Error % mean(SD) ([6]; thalamus): -3(20) %
- Error range (%) ([6]; thalamus): -26 to 27%
- VT Logan ([6]; thalamus, retest): 0.76(0.25)
- VT Logan ([6]; thalamus, test): 0.80(0.24)
- Error % mean(SD) ([6]; white matter): -4(19) %
- Error range (%) ([6]; white matter): -32 to 19%
- VT Logan ([6]; white matter, retest): 0.65(0.20)
- VT Logan ([6]; white matter, test): 0.69(0.18)
- Error % mean(SD) ([6]; whole brain): -4(16) %
- Error range (%) ([6]; whole brain): -29 to 17%
- VT Logan ([6]; whole brain, retest): 0.65(0.19)
- VT Logan ([6]; whole brain, test): 0.69(0.17)
- log P [7]: 1.4 to 3.4
- radioactivity injected (ID%) present in the brain [8, 16]: about 2.5%
- radioactivity injected (ID%) present in the brain, range [8, 16]: 1.9% to 3.2
- time of peak of total brain radioactivity after injection ([8]; intravenous injection): approximately 1 min
- mean ID% in the brain ([8]; measurement time from 20 to 60 min): 1.5% to 1.3
- fraction of non-specifically bound radioligand [9]: about 60%
- substrate for ABC transporter [10]: not a substrate
